Tested on: intrinsic blood clotting system
Assay: Determination of the inhibition of contact activation: activated partial thromboplastin time (aPTT) in platelet-poor plasma
Parameters: species or system human
Settings: concentration of inhibitor causing twofold prolongation of aPTT; platelet-poor citrate plasma from healthy volunteers; 10 min incubation at 37° C.; PTT reagent (kaolin/cephalin)
From the text: The contact activation can be measured by means of a global plasma clotting test, the activated partial thromboplastin time (aPTT), which detects the effect on factors of the intrinsic blood clotting system.
The PTT reagent is a mixture of kaolin suspension, that is “silicates”, which mimic the negatively charged foreign surface, and cephalin, that is phospholipids, which are needed as a surface for the conversion of factor XII into factor XIIa. In the presence of a foreign surface, phospholipid and Ca^2+, factor XII is converted to factor XIIa.
This PTT reagent is added to specially prepared plasma (see examples). The clotting is triggered when the necessary calcium^2+ ions are present, i.e. by addition of a calcium dichloride solution. The time between calcium^2+ addition and the onset of clotting is then measured, and the concentration of inhibitor [in μM] which causes a twofold prolongation of the aPTT is stated.
The contact activation is determined by determination of the partial thromboplastin time. The test principle is as follows: the plasma sample is treated with a mixture of the partial thromboplastin cephalin (phospholipid from rabbit brain) and the surface activator kaolin. The contact activation of the intrinsic clotting system up to fibrin formation is thus set in motion.
For the determination of the partial thromboplastin time, blood from healthy volunteers of both sexes, who had not received any medication affecting clotting within the last ten days, was used. The blood is collected in Monovettes (Sarstedt, Nümbrecht) which contain sodium citrate (1 part citrate+9 parts blood) as anticoagulant. To obtain platelet-poor plasma, the citrate (3.8%) whole blood is centrifuged at 2500 g for 10 min at 4° C. and stored at −20° C. For the determination of the clotting time, aliquots of the platelet-poor plasma (0.1 ml) are incubated with increasing concentrations of test substance or the corresponding solvent for 10 mins at 37° C. Next, the clotting time is determined in accordance with the manufacturer's directions (PTT Reagent®, Roche Diagnostics). For this the procedure is as follows: 0.1 ml of PTT reagent is pipetted into the plasma, and the sample incubated for three minutes at 37° C. The clotting is then triggered in a coagulometer by addition of 0.1 ml of calcium chloride solution and the time to onset of clotting is measured. In this manner, the 2-fold prolongation of the aPTT is determined for selected compounds.

Structure (SMILES)	Twofold prolongation of the aPTT [µM]
O=C(NC[C@H]1CN(c2ccc(N3CCCC3=O)cc2)C(=O)O1)c1ccc(Cl)s1 [Example 17]	1.8
O=C(NC[C@H]1CN(c2ccc(N3CCOCC3=O)cc2)C(=O)O1)c1ccc(Cl)s1 [Example 44, 5-chloro-N-({(5S)-2-oxo-3-[4-(3-oxo-4-morpholinyl)phenyl]-1,3-oxazolidin-5-yl}methyl)-2-thiophencarboxamide]	0.69
O=C(NC[C@H]1CN(c2ccc(N3CCCC3=O)cc2)C(=O)O1)c1ccc(Br)s1 [Example 56]	4.3
O=C(NCC1CN(c2ccc(N3CCOCC3=O)c(F)c2)C(=O)O1)c1ccc(Cl)s1 (centres unmarked) [Example 95]	0.51
O=C(NCC1CN(c2ccc(N3CCCC3=O)c(C(F)(F)F)c2)C(=O)O1)c1ccc(Cl)s1 (centres unmarked) [Example 112]	1.6
O=C(NCC1CN(c2ccc(N3CCOCC3=O)c(Cl)c2)C(=O)O1)c1ccc(Cl)s1 (centres unmarked) [Example 113]	0.55
O=C(NCC1CN(c2ccc(N3CCOCC3=O)c(C(F)(F)F)c2)C(=O)O1)c1ccc(Cl)s1 (centres unmarked) [Example 114]	2.2
Cc1cc(N2CC(CNC(=O)c3ccc(Cl)s3)OC2=O)ccc1N1CCOCC1=O (centres unmarked) [Example 115]	1.34
Nc1cc(N2CC(CNC(=O)c3ccc(Cl)s3)OC2=O)ccc1N1CCOCC1=O (centres unmarked) [Example 123]	1.22
O=C(NC[C@H]1CN(c2ccc(N3CCOCC3=O)c(F)c2)C(=O)O1)c1ccc(Cl)s1 [Example 130a]	0.4
O=C(NC[C@H]1CN(c2ccc(N3CCCCC3=O)cc2)C(=O)O1)c1ccc(Cl)s1 [Example 162]	2.5

Reference: patent US20100003542A1, “Coating of artificial surfaces of medical aids and instruments, and cleaning and/or pretreatment of catheters and other medical aids and instruments” (BAYER SCHERING PHARMA AKTIENGESSELSCHAFT, priority 2006, published 2010)
